Measured values as given in paper PMC9104798, “Plant Alkaloid Tetrandrine Is a Nuclear Receptor 4A1 Antagonist and Inhibits Panc-1 Cell Growth In Vitro and In Vivo” (International Journal of Molecular Sciences, 2022).

Biological target: nuclear receptor 4A1 (NR4A1) (Homo sapiens, UniProt P22736)
Experiment: tryptophan fluorescence quenching with NR4A1 LBD ([…])
Format: binding

Chain of nuclear receptor 4A1 (NR4A1) (P22736 351-598 limits assumed): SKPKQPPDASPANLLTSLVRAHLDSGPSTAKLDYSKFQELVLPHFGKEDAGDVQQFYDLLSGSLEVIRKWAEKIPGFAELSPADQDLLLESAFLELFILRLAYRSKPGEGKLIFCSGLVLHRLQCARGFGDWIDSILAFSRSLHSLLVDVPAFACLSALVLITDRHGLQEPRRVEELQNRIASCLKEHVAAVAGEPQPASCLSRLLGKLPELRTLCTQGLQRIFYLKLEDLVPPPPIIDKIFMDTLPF

In the case of `COc1ccc2cc1Oc1ccc(cc1)C[C@H]1c3cc(c(OC)cc3CCN1C)Oc1c(OC)c(OC)cc3c1[C@H](C2)N(C)CC3` [TTD, tetrandrine], the Kd is reported as 10.6 µM.
